The values that follow are results of earlier work, collected in PMC12736226, “Acid Versus Amide—Facts and Fallacies: A Case Study in Glycomimetic Ligand Design” (Molecules, 2025).

This data set has as its target T1, E-selectin (Homo sapiens, UniProt P16581).
T1 construct: gene SELE; soluble extracellular lectin-domain fragment with Ca2+
T1 sequence (P16581 22-301): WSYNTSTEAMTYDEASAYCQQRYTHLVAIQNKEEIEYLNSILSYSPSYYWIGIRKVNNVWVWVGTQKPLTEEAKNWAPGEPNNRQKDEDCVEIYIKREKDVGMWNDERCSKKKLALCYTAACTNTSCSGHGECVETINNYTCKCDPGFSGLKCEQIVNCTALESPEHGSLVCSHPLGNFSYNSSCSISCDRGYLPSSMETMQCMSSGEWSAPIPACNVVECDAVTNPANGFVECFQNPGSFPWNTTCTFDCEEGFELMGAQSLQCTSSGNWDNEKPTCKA
Put plainly: microscale thermophoresis (MST). Type of data set: binding. Conditions: affinity data also reported in Ref. 25; read-out: Affinity KD MST [μM] (95% CI). From the text: microscale thermophoresis (MST) on E-selectin

For `CNC(=O)[C@H](CC1CCCCC1)O[C@H]1[C@@H](O)[C@@H](CO)O[C@@H](O[C@@H]2CCCC[C@H]2O[C@@H]2O[C@@H](C)[C@@H](O)[C@@H](O)[C@@H]2O)[C@@H]1O` [3b], the dissociation constant Kd was 112 µM.

On to `C[C@@H]1O[C@@H](O[C@@H]2CCCC[C@H]2O[C@@H]2O[C@H](CO)[C@H](O)[C@H](O[C@@H](CC3CCCCC3)C(N)=O)[C@H]2O)[C@@H](O)[C@H](O)[C@@H]1O` [3a], for which the Kd was 166 µM.

Take `CCNC(=O)[C@H](CC1CCCCC1)O[C@H]1[C@@H](O)[C@@H](CO)O[C@@H](O[C@@H]2CCCC[C@H]2O[C@@H]2O[C@@H](C)[C@@H](O)[C@@H](O)[C@@H]2O)[C@@H]1O` [3c]: the dissociation constant Kd is 109 µM.

With `C[C@@H]1O[C@@H](O[C@@H]2CCCC[C@H]2O[C@@H]2O[C@H](CO)[C@H](O)[C@H](O[C@@H](CC3CCCCC3)C(=O)N3CC(c4ccccc4)C3)[C@H]2O)[C@@H](O)[C@H](O)[C@@H]1O` [3h], the Kd is 16.2 µM.

With `C[C@@H]1O[C@@H](O[C@@H]2CCCC[C@H]2O[C@@H]2O[C@H](CO)[C@H](O)[C@H](O[C@@H](CC3CCCCC3)C(=O)N(C)C)[C@H]2O)[C@@H](O)[C@H](O)[C@@H]1O` [3d], the equilibrium dissociation constant (Kd) was 34.6 µM.

With `C[C@@H]1O[C@@H](O[C@@H]2CCCC[C@H]2O[C@@H]2O[C@H](CO)[C@H](O)[C@H](O[C@@H](CC3CCCCC3)C(=O)N3CC(C)(C)C3)[C@H]2O)[C@@H](O)[C@H](O)[C@@H]1O` [3i], the Kd is 38.2 µM.

Consider `C[C@@H]1O[C@@H](O[C@@H]2CCCC[C@H]2O[C@@H]2O[C@H](CO)[C@H](O)[C@H](O[C@@H](CC3CCCCC3)C(=O)N3CCC3)[C@H]2O)[C@@H](O)[C@H](O)[C@@H]1O` [3f], for which the Kd is 17 µM.

As to `C[C@@H]1O[C@@H](O[C@@H]2CCCC[C@H]2O[C@@H]2O[C@H](CO)[C@H](O)[C@H](O[C@@H](CC3CCCCC3)C(=O)N3CCCC3)[C@H]2O)[C@@H](O)[C@H](O)[C@@H]1O` [3e], the Kd is 21.4 µM.

`CC(=O)N[C@H]1[C@H]([C@H](O)[C@H](O)CO)O[C@@](O[C@H]2[C@@H](O)[C@@H](CO)O[C@@H](O[C@H]3[C@H](O[C@@H]4O[C@@H](C)[C@@H](O)[C@@H](O)[C@@H]4O)[C@@H](NC(C)=O)C(O)O[C@@H]3CO)[C@@H]2O)(C(=O)O)C[C@@H]1O` (stereo partly drawn) [compound 1, Sialyl Lewis^x]: the equilibrium dissociation constant (Kd) was 873 µM.
